Laboratory results: patent publication US7285560B2, “Indole derivatives or benzimidazole derivatives for modulating IκB kinase” (Sanofi-Aventis Deutschland GmbH, priority 2002, dated 2007)
pIC50: −log10 of the molar value.

Columns and labels:
protein tyrosine kinase = assay: Protein tyrosine kinase assay (Upstate test kit); type: biochemical; settings: for Specificity ratio: IC50 protein tyrosine kinase relative to IκB kinase, > denotes better than; for pIC50: ATP concentration of 50 μM, substrate Poly (Glu, Tyr 4:1) 1 mg/ml
Procedure: As examples of the specificities of the IκB kinase inhibitors which had been discovered, their IC50 values were determined in the case of the kinase enzyme protein tyrosine kinase.
Protein tyrosine kinase activity was determined using the appropriate test kit from Upstate Biotechnologie in accordance with the manufacturer's instructions and at an ATP concentration of 50 μM. As a difference from the manufacturer's method, Multi-Screen plates (Millipore; phosphocellulose MS-PH, cat. MAPHNOB10, or Durapore PVDF, cat. MADVNOB 50), were used, together with the appropriate exhaust system, instead of phospho-cellulose filters. Poly (Glu, Tyr 4:1) (Sigma cat. P0275) was used as the test kit substrate at a test concentration of 1 mg/ml. The plates were then measured in a Wallac MicroBeta scintillation counter. 100 μM of the test substance were used in each case.
The test substance was tested in a duplicate determination. The IC50 calculations were performed using the GraFit 3.0 software package.

IκB kinase = target: T1, IκB kinase (Homo sapiens, UniProt O14920+O15111); assay: IκB kinase ELISA; type: biochemical
T1 construct: endogenous in cells; host or cells: HeLa S3 (S100 extract; ammonium sulfate cut, Superose-6 fractions at 670 kDa)
T1 sequence (O14920 whole entry): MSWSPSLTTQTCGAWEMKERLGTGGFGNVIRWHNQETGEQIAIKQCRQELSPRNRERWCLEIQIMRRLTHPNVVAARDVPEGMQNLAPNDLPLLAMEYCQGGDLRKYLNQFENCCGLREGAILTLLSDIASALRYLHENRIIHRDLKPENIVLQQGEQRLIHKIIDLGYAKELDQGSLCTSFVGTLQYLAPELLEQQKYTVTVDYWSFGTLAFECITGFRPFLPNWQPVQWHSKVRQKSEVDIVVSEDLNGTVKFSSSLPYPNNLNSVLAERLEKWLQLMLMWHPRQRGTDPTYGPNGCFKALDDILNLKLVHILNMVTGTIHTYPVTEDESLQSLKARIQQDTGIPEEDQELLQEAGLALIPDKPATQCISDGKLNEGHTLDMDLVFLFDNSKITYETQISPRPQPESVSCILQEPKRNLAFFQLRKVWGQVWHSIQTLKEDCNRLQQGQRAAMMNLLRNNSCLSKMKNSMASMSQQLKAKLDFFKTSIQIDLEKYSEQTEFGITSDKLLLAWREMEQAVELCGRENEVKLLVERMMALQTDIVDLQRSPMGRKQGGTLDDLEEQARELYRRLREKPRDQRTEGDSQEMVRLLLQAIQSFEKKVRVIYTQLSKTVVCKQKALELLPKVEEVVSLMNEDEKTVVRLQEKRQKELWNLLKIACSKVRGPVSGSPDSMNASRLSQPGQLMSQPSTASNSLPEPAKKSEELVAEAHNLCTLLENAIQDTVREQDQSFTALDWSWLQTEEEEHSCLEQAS
T1 sequence (O15111 whole entry): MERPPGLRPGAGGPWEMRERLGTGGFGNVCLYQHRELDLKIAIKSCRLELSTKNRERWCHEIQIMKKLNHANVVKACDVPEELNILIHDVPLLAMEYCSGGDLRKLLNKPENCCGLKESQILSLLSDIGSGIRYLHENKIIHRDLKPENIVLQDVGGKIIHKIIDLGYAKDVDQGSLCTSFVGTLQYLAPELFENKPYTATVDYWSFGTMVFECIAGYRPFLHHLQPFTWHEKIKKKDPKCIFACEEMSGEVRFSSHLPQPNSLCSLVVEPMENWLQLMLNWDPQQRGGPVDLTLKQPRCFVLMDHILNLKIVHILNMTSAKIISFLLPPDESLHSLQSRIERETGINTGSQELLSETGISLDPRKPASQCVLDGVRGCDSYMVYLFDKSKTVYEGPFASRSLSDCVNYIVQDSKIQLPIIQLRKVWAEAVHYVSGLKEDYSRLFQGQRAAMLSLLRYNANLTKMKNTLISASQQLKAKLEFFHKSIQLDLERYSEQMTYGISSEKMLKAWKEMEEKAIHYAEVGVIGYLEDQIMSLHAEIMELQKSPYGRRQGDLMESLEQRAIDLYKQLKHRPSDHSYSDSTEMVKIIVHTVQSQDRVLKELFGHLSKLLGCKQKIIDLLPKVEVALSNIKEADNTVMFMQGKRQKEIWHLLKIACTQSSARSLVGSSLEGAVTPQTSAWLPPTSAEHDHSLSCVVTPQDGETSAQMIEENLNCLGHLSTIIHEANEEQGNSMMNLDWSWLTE
T1 sequence (Q9Y6K9 whole entry partner): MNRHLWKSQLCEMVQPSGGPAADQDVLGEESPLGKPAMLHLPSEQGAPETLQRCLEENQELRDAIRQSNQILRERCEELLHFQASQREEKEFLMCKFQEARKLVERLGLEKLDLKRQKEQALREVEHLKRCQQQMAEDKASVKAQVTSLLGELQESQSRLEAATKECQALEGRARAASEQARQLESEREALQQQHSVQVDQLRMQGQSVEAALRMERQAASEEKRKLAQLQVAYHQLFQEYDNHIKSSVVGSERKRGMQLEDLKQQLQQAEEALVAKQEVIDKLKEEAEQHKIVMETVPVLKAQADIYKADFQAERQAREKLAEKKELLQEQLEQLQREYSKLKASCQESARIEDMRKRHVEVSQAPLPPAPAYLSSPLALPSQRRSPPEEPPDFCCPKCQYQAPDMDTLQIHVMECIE

[1] = Comparison experiment: blood plasma level after oral administration, male NMRI mice; type: in vivo
Procedure: [drawing 27] was prepared as described in WO 01/30774 and is termed the comparison compound below. The comparison compound was administered to male NMRI mice. For this, in each case about 50 mg of the comparison compound per kg of body weight of the mice were administered orally as a suspension in 0.5% HEC (by way of a probang). Blood samples were taken after 0.25; 0.5; 1; 2; 4; 6 and 8 hours (sacrificial blood was withdrawn from in each case 2 animals at each of the time points mentioned). The blood samples were converted into heparin plasma. The plasma samples were stored at −20° C. until analyzed.
Analysis: The analysis was carried out using HPLC/UV.
(§1) Processing: 50 μl of plasma+20 μl of internal standard (5 μg/ml)+50 μl of buffer (1% formic acid/acetonitrile, 40:60, v/v) were mixed for about 10 sec on a Whirlmixer. 150 μl of acetonitrile were then added and the whole was mixed once again for about 10 sec. The samples were then centrifuged (Hettich, EBA 12, about 12 000 revolutions per min). The supernatants (in each case about 200 μl) were transferred to glass tubes. 100 μl of the supernatant were injected.

[2] = Blood plasma level after oral administration, male C57/BL6 mice; type: in vivo; settings: about 25 mg/kg orally as suspension in 0.5% HEC, sampling 0.25-8 hours
Procedure: Blood plasma level of N-[(S)-2-diphenylamino-1-(5-oxo-4,5-dihydro[1,3,4]-oxadiazol-2-yl)ethyl]-2-(2-methylaminopyrimidin-4-yl)-1H-indol-5-carboxamide.
Blood samples were taken after 0.25; 0.5; 1; 2; 4; 6 and 8 hours (sacrificial blood was withdrawn from in each case 2 animals at each of the time points mentioned). The blood samples were converted into heparin plasma. The plasma samples were stored at −20° C. until analyzed.
The plasma samples were thawed. The plasma proteins which interfered with the analysis were then precipitated with acetonitrile.
as §1, with “(2 mMol ammonium formate solution, pH 2.6/acetonitrile,” for “(1% formic acid/acetonitrile,”, “minute).” for “min).”, “70” for “100”
The lower detection limit of the method is 0.01 μg/mL.

Compound	Specificity ratio (protein tyrosine kinase)	pIC50 (IκB kinase)	also measured
CNc1nccc(-c2cc3cc(C(=O)NC(CN(c4ccc(F)cc4)c4ncc(C)cn4)C(N)=O)ccc3[nH]2)n1 (stereo not drawn) [Example 61, N-{1–Carbamoyl-2-[(4-fluorophenyl)-(5-methylpyrimidin-2-yl)amino]ethyl}-2-(2-methylaminopyrimidin-4-yl)-1H-indole-5-carboxamide]	>1650	8.22	–
CCN(C[C@H](NC(=O)c1ccc2[nH]c(-c3ccncc3)cc2c1)C(N)=O)c1ccccc1 [comparison compound]	–	–	pIC50 (protein tyrosine kinase): 4.33; ratio of the IC50 values for protein tyrosine kinase relative to IκB kinase (protein tyrosine kinase; for the comparison compound the IκB kinase IC50 is taken from WO 01/30774): 46.35; maximum blood plasma level lower than with compound 28 ([1]; comparison compound 50 mg/kg vs compound 28 25 mg/kg, oral, mice): about 60%; plasma level, at most (maximum blood plasma level) ([1]; male NMRI mice, about 50 mg/kg orally as suspension in 0.5% HEC, sampling 0.25-8 hours): 1500 ng/mL; AUC ([1]; mouse, plasma, po, male NMRI mice, about 50 mg/kg orally as suspension in 0.5% HEC, sampling 0.25-8 hours, read-out: exposure, measured as the AUC=area under the curve): 1700 ng·h/mL
CNc1nccc(-c2nc3cc(C(=O)NC(CN(c4ccccc4)c4ncccn4)C(N)=O)ccc3[nH]2)n1 (stereo not drawn) [Example 65, N-{1–Carbamoyl-2-[(phenyl)pyrimidin-2-ylamino]ethyl}2-(2-methylaminopyrimidin-4-yl)-1H-benzimidazole-5-carboxamide]	>2500	8.40	–
CNc1nccc(-c2nc3cc(C(=O)N[C@@H](CN(c4ccccc4)c4ccccc4)C(N)=O)ccc3[nH]2)n1 [Example 63]	>1000	8.52	–
CNc1nccc(-c2cc3cc(C(=O)N[C@@H](CN(c4ccccc4)c4ccccn4)C(=O)NOC)ccc3[nH]2)n1 [Example 43, N-[1-Methoxycarbamoyl-2-(phenylpyridin-2-ylamino)ethyl]-S-2-(2-methylaminopyrimidin-4-yl)-1H-indole-5-carboxamide]	>12500	9.10	–
NC(=O)C(CN(c1ccc(F)cc1)c1ccccn1)NC(=O)c1ccc2[nH]c(-c3ccnc(N)n3)cc2c1 (stereo not drawn) [Example 35, N-{1–Carbamoyl-2-[(4-fluorophenyl)pyridin-2-ylamino]ethyl}-2-(2-aminopyrimidin-4-yl)-1H-indole-5-carboxamide]	>1000	8.00	–
CNc1nccc(-c2cc3cc(C(=O)NC(CN(c4ccccc4)c4ncccn4)C(N)=O)ccc3[nH]2)n1 (stereo not drawn) [Example 47, N-{1–Carbamoyl-2[(phenyl)pyrimidin-2-ylamino]ethyl}-2-(2-methylaminopyrimidin-4-yl)-1H-indole-5-carboxamide]	>1665	8.22	–
CNc1nccc(-c2cc3cc(C(=O)N[C@@H](CN(c4ccccc4)c4nccc(C(F)(F)F)n4)C(=O)O)ccc3[nH]2)n1 [Example 54, (S)-2-{[2-(2-Methylaminopyrimidin-4-yl)-1H-indole-5-carbonyl]amino}-3-[phenyl-(4-trifluoromethylpyrimidin-2-yl)amino]propionic Acid]	>3330	8.52	–
CNc1nccc(-c2cc3cc(C(=O)NC(CN(c4ccccc4)c4ncccn4)C(=O)NCCO)ccc3[nH]2)n1 (stereo not drawn) [Example 49, N-[1-(2-Hydroxyethylcarbamoyl)-2-(phenylpyrimidin-2-ylamino)ethyl]-2-(2-methylaminopyrimidin-4-yl)-1H-indole-5-carboxamide]	–	7.46	–
CNc1nccc(-c2cc3cc(C(=O)N[C@@H](CN(c4ccccc4)c4ccccc4)c4n[nH]c(=O)o4)ccc3[nH]2)n1 [Example 28, N-[(S)-2-Diphenylamino-1-(5-oxo-4,5-dihydro[1,3,4]oxadiazol-2-yl)ethyl]-2-(2-methylaminopyrimidin-4-yl)-1H-indole-5-carboxamide]	–	–	plasma level, at most (maximum blood plasma level) [2]: 4300 ng/mL; AUC ([2]; mouse, plasma, po, read-out: exposure, measured as AUC=area under the curve): 5400 ng·h/mL; pIC50 (protein tyrosine kinase): 4.08
CNc1nccc(-c2cc3cc(C(=O)N[C@@H](CN(c4ccccc4)c4nccs4)C(N)=O)ccc3[nH]2)n1 [Example 42, N-[1–Carbamoyl-2-(phenylthiazol-2-ylamino)ethyl]-S-2-(2-methylaminopyrimidin-4-yl)-1H-indole-5-carboxamide]	>1110	8.05	–
CNc1nccc(-c2cc3cc(C(=O)NC(CN(c4ccc(F)cc4)c4ccccn4)C(N)=O)ccc3[nH]2)n1 (stereo not drawn) [Example 30, N-{1–Carbamoyl-2-[(4-fluorophenyl)pyridin-2-ylamino]ethyl}-2-(2-methylaminopyrimidin-4-yl)-1H-indole-5-carboxaminde]	>200	7.30	–
CNc1nccc(-c2cc3cc(C(=O)NC(CN(c4ccc(F)cc4)c4ccccn4)c4nnc[nH]4)ccc3[nH]2)n1 (stereo not drawn) [Example 36, N-[2-[(4-Fluorophenyl)pyridin-2-ylamino]-1-(4H-[1,2,4]triazol-3-yl)ethyl]-2-(2-methylaminopyrimidin-4-yl)-1H-indole-5-carboxamide]	>2000	8.30	–
CNc1nccc(-c2nc3cc(C(=O)NC(CN(c4ccccc4)c4ccccn4)C(N)=O)ccc3[nH]2)n1 (stereo not drawn) [Example 67, N-{1–Carbamoyl-2-[(phenyl)pyridin-2-ylamino]ethyl}-2-(2-methylaminopyrimidin-4-yl)-1H-benzimidazole-5-carboxamide]	>5000	8.70	–
CNc1nccc(-c2cc3cc(C(=O)N[C@@H](CN(c4ccccc4)c4ccccn4)c4n[nH]c(=O)o4)ccc3[nH]2)n1 [Example 33, N-[(S)-1-(5-Oxo-4,5-dihydro-1,3,4-oxadiazol-2-yl)-2-(phenylpyridin-2-ylamino)ethyl]-2-(2-methylaminopyrimidin-4-yl)-1H-indole-5-carboxamide]	>833	7.92	–
